The record followed here is patent publication US10544140B2, “Pharmaceutical composition containing, as active ingredient, 7-azaindolin-2-one derivative or pharmaceutically acceptable salt thereof” (LG CHEM, LTD., priority 2015, dated 2020).

Data set [1] has as its system MCF-7 (human breast cancer cell line). Briefly: Cytotoxicity test by MTT assay, MCF-7. The data set is classed as cell-based. As to conditions: for cytotoxicity at 30 µM / IC50: Homo sapiens, MCF7; for cytotoxicity at 30 µM: MCF-7, 30 μM, 48 h, read-out: Cell viability (% inhibition); for IC50: MCF-7, 48 h; for cytotoxicity compared with the reference drug sunitinib: MCF-7. The method, then:
(§1) A cytotoxicity test was measured by MTT assay. Each cell line was cultured in a 96-well plate at a density of 1×10^4 cells/well. […] MTT (3-(4,5-dimethylthiazol-2-yl)-2,5-diphenyltetrazolium bromide) solution (5 mg/mL) was added to each well and reacted for 4 hours in an incubator. […] After reacting in an incubator for 30 minutes, the formation of formazan was quantified using a microplate reader at an absorbance of 540 nm. […] At this time, sunitinib was used as a control group. […] The human cancer cell lines used herein are MCF-7 (breast cancer), MDA-MB-231 (breast cancer), HT-29 (colon cancer), DU145 (prostate cancer), U937 (myeloid leukemia), A549 (lung cancer), PANC-1 (pancreatic cancer) and MIA PaCa-2 (pancreatic cancer).

Data set [2] concerns PANC-1 (human pancreatic cancer cell line). In words: Cytotoxicity test by MTT assay, PANC-1. The data set is classed as cell-based. As to conditions: for cytotoxicity at 30 µM / IC50: Homo sapiens; for cytotoxicity at 30 µM: PANC-1, 30 μM, 48 h, read-out: Cell viability (% inhibition); for IC50: PANC-1, 48 h. How it is done:
as §1

The subject of data set [3] is MDA-MB-231 (breast cancer). Briefly: Cytotoxicity test by MTT assay, MDA-MB-231. The note with it: for IC50: Homo sapiens, MBA-MB-231, 48 h. The data set is classed as cell-based, human. The method, then: (§2) A cytotoxicity test was measured by MTT assay. Each cell line was cultured in a 96-well plate at a density of 1×10^4 cells/well. After 24 hours, the culture medium containing 1% FBS (fetal bovine serum) was treated and reacted with compounds or solutions of compounds for 48 hours. MTT (3-(4,5-dimethylthiazol-2-yl)-2,5-diphenyltetrazolium bromide) solution (5 mg/mL) was added to each well and reacted for 4 hours in an incubator. […] After reacting in an incubator for 30 minutes, the formation of formazan was quantified using a microplate reader at an absorbance of 540 nm. […] The human cancer cell lines used herein are MCF-7 (breast cancer), MDA-MB-231 (breast cancer), HT-29 (colon cancer), DU145 (prostate cancer), U937 (myeloid leukemia), A549 (lung cancer), PANC-1 (pancreatic cancer) and MIA PaCa-2 (pancreatic cancer).

A further data set has as its system HT-29 (colon cancer). Briefly: Cytotoxicity test by MTT assay, HT-29. The data set is classed as cell-based, human. The note with it: for IC50: Homo sapiens, HT-29, 48 h. The method, then: as §2
The next data set concerns DU145 (prostate cancer). Briefly: Cytotoxicity test by MTT assay, DU145. The data set is classed as cell-based, human. The note with it: DU-145; for IC50: Homo sapiens, DU145, 48 h. How it is done: as §2
Another data set deals with U937 (myeloid leukemia). In words: Cytotoxicity test by MTT assay, U937. The note with it: Homo sapiens, U-937; U937, 48 h. The data set is classed as cell-based, human. The method, then: as §2
The test system of a further data set is A549 (lung cancer). In words: Cytotoxicity test by MTT assay, A549. The data set is classed as cell-based, human. As to conditions: for IC50: Homo sapiens, A549, 48 h. How it is done: as §2
Data set [4] in a line: Cytotoxicity test by MTT assay, HEK293 normal cell line. The class given is cell-based. As to conditions: human, HEK293 cells (normal cell line). How it is done:
(§3) A cytotoxicity test was measured by MTT assay. Each cell line was cultured in a 96-well plate at a density of 1×10^4 cells/well. After 24 hours, the culture medium containing 1% FBS (fetal bovine serum) was treated and reacted with compounds or solutions of compounds for 48 hours. MTT (3-(4,5-dimethylthiazol-2-yl)-2,5-diphenyltetrazolium bromide) solution (5 mg/mL) was added to each well and reacted for 4 hours in an incubator. […] After reacting in an incubator for 30 minutes, the formation of formazan was quantified using a microplate reader at an absorbance of 540 nm.

A short description of data set [5]: Cytotoxicity test by MTT assay, CHO-K1 normal cell line. The class given is cell-based. The note with it: Chinese hamster, CHO-K1 cells (normal cell line). The method, then:
as §3

Data set [6] deals with MIA PaCa-2 (pancreatic cancer). In words: Cytotoxicity test by MTT assay, MIA PaCa-2. The data set is classed as cell-based, human. The note with it: for IC50: Homo sapiens, MIA PaCa-2, 48 h. The method, then:
as §2

Regarding `CCCCC/C=C1\C(=O)Nc2nc(C)c(O)c(C)c21` [Compound I-01, (Z)-3-Hexylidene-5-hydroxy-4,6-dimethyl-1H-pyrrolo[2,3-b]pyridin-2(3H)-one], the cytotoxicity at 30 µM in data set [1] worked out at 76.9%; in data set [2], 77.4%. Further, the IC50 in data set [1] amounted to 13.8 µM; in data set [3], 12.6 µM; in the data set with HT-29 (colon cancer) it was 12.9 µM; in the data set on DU145 (prostate cancer), 11 µM; with U937 (myeloid leukemia), 11.5 µM; in the data set on A549 (lung cancer), 7.6 µM. Further, the IC50 at 48 h in data set [4] was more than 90 µM; in data set [5] it was 20.9 µM.
With `COc1ccc(OC)c(/C=C2\C(=O)Nc3nc(C)c(O)c(C)c32)c1` [Compound I-15, (Z)-3-(2,5-Dimethoxybenzylidene)-5-hydroxy-4,6-dimethyl-1H-pyrrolo[2,3-b]pyridin-2(3H)-one], the cytotoxicity at 30 µM in data set [1] came out at 67.5%; in data set [2] it was 69.2%. The IC50 in data set [1] worked out at 20.9 µM; in data set [2], 19.5 µM; in [3], 22.9 µM; in the data set on HT-29 (colon cancer), 16.6 µM; in the data set on DU145 (prostate cancer) it was 5.55 µM; in the data set with U937 (myeloid leukemia), 33 µM. For the same compound, the IC50 in the data set on A549 (lung cancer) worked out at 47.5 µM. Moreover, in the data set on DU145 (prostate cancer), the “cytotoxicity compared with the reference drug sunitinib” value is recorded as “greater than or equal to that of the reference drug sunitinib”. In addition, the IC50 at 48 h in data set [4] stood at 37.8 µM; in data set [5] it was 47.5 µM.
On to `COc1ccc(Br)cc1/C=C1\C(=O)Nc2nc(C)c(O)c(C)c21` [Compound I-17, (Z)-3-(5-bromo-2-methoxybenzylidene)-5-hydroxy-4,6-dimethyl-1H-pyrrolo[2,3-b]pyridin-2(3H)-one], for which the cytotoxicity at 30 µM in data set [1] amounted to 74.7%; in data set [2] it was 71.7%. In addition, the IC50 in [1] came to 11 µM; in data set [3], 10.5 µM; with HT-29 (colon cancer), 25.1 µM; in the data set on DU145 (prostate cancer), 4.57 µM; in the data set on U937 (myeloid leukemia) it was 12.6 µM; in the data set on A549 (lung cancer), 10.1 µM. The “cytotoxicity compared with the reference drug sunitinib” value in the data set on DU145 (prostate cancer) was “greater than or equal to that of the reference drug sunitinib”. The values for the IC50 at 48 h in [4] and in data set [5] were 33 µM and 30.1 µM, respectively.
In the case of `Cc1nc2c(c(C)c1O)/C(=C/c1ccc(N(C)C)cc1)C(=O)N2` [Compound I-18, (Z)-3-(4-(Dimethylamino)benzylidene)-5-hydroxy-4,6-dimethyl-1H-pyrrolo[2,3-b]pyridin-2(3H)-one], the cytotoxicity at 30 µM in data set [1] was determined as 62.5%; in [2], 66.3%. Further, the IC50 in data set [1] is 13.2 µM; in data set [2], 13.8 µM; in data set [3], 12.1 µM; in the data set with HT-29 (colon cancer), 36.3 µM; in the data set on DU145 (prostate cancer) it was 1.14 µM; in the data set on A549 (lung cancer), 13.2 µM. In data set [6], this compound returned an IC50 of 11.5 µM. Moreover, the “cytotoxicity compared with the reference drug sunitinib” value (in data set [2] (PANC-1); in the data set on DU145 (prostate cancer)) was “greater than or equal to that of the reference drug sunitinib” throughout. Also, the IC50 at 48 h in data set [4] and in data set [5] was more than 90 µM each time.
Regarding `Cc1nc2c(c(C)c1O)/C(=C/C(c1ccccc1)c1ccccc1)C(=O)N2` [Compound I-19, (Z)-3-(2,2-Diphenylethylidene)-5-hydroxy-4,6-dimethyl-1H-pyrrolo[2,3-b]pyridin-2(3H)-one], the results for the cytotoxicity at 30 µM in [1] and in [2] were 78.1% and 81.4%, respectively. The IC50 was found to be 6.37 µM in data set [1]; 7.41 µM in [2]; 22.9 µM in data set [3]; 11.5 µM with HT-29 (colon cancer); 8.77 µM with DU145 (prostate cancer); 16.6 µM in the data set with U937 (myeloid leukemia). In the data set on A549 (lung cancer), this compound had an IC50 of 31.5 µM. Also, the “cytotoxicity compared with the reference drug sunitinib” value in data set [1] and in [2] (PANC-1) was “greater than or equal to that of the reference drug sunitinib” each time. For the same compound, the results for the IC50 at 48 h in data set [4] and in data set [5] were 26.2 µM and 30.1 µM, respectively.
On to `Cc1nc2c(c(C)c1O)/C(=C/c1cccnc1)C(=O)N2` [Compound I-22, (Z)-5-Hydroxy-4,6-dimethyl-3-(pyridin-3-ylmethylene)-1H-pyrrolo[2,3-b]pyridin-2(3H)-one], for which the cytotoxicity at 30 µM was 78% in [1] and 72.7% in data set [2]. Also, the IC50 in data set [1] is 17.4 µM; in [3], 9.61 µM; in the data set on HT-29 (colon cancer) it was 19.9 µM; in the data set on DU145 (prostate cancer), 1.18 µM; in the data set with U937 (myeloid leukemia), 14.5 µM; in the data set with A549 (lung cancer) it was 13.8 µM. Also, in the data set with DU145 (prostate cancer), the “cytotoxicity compared with the reference drug sunitinib” value is on record as “greater than or equal to that of the reference drug sunitinib”. In addition, the figures for the IC50 at 48 h in data set [4] and in data set [5] were more than 90 µM and 78.5 µM, respectively.
Consider `Cc1nc2c(c(C)c1O)/C(=C/c1ccncc1)C(=O)N2` [Compound I-23, (Z)-5-Hydroxy-4,6-dimethyl-3-(pyridin-4-ylmethylene)-1H-pyrrolo[2,3-b]pyridin-2(3H)-one], for which the figures for the cytotoxicity at 30 µM in data set [1] and in [2] were 63.2% and 65.4%, respectively. Moreover, the IC50 in [1] was found to be 19.1 µM; in [2] it was 19.1 µM; in the data set on HT-29 (colon cancer), 30.1 µM; in the data set with DU145 (prostate cancer), 30.1 µM; in the data set on U937 (myeloid leukemia), 34.5 µM; with A549 (lung cancer), 30.1 µM. The IC50 at 48 h was 45.7 µM in data set [4] and 57 µM in data set [5].
As to `CCNCCNC(=O)c1c(C)[nH]c(/C=C2\C(=O)Nc3nc(C)c(O)c(C)c32)c1C` [Compound I-40, (Z)—N-(2-(Ethylamino)ethyl)-5-((5-hydroxy-4,6-dimethyl-2-oxo-1H-pyrrolo[2,3-b]pyridin-3(2H)-ylidene)methyl)-2,4-dimethyl-1H-pyrrole-3-carboxamide], the half-inhibitory concentration (IC50) was 1.32 µM in data set [1]; 1.02 µM in [2]; 1.47 µM in [3]; 1.45 µM with HT-29 (colon cancer); 0.26 µM in the data set with DU145 (prostate cancer); 1.47 µM in the data set with A549 (lung cancer). In data set [6], this compound showed an IC50 of 1.58 µM. In addition, the “cytotoxicity compared with the reference drug sunitinib” value (in data set [1]; in data set [2] (PANC-1); in [3]; with HT-29 (colon cancer) (HT-29); in the data set on DU145 (prostate cancer); in the data set with A549 (lung cancer) (A-549)) was “greater than or equal to that of the reference drug sunitinib” in each case. Besides, the “cytotoxicity compared with the reference drug sunitinib” value in data set [6] (MIA PaCa-2) is listed as “greater than or equal to that of the reference drug sunitinib”. Also, the IC50 at 48 h worked out at 19.1 µM in [4] and 40.7 µM in data set [5].
Consider `Nc1ccn([C@@H]2O[C@H](CO)[C@@H](O)C2(F)F)c(=O)n1` [Gemcitabine, reference compound], for which the IC50 in data set [2] and in data set [6] was more than 1000 µM in each case. The “resistance of the cell line to the drug” value in data set [2] (PANC-1) and in data set [6] (MIA PaCa-2) was “resistance to gemcitabine” in each case.
Take `CCN(CC)CCNC(=O)c1c(C)[nH]c(/C=C2\C(=O)Nc3ccc(F)cc32)c1C` [Sunitinib, sunitinib, reference compound]: the IC50 in data set [3] turned out to be 6.09 µM; in the data set with HT-29 (colon cancer) it was 4.89 µM; in the data set with DU145 (prostate cancer), 5.88 µM; in the data set on U937 (myeloid leukemia) it was 6.98 µM; in the data set on A549 (lung cancer), 6.98 µM; in data set [6] it was 8.51 µM. The compound also gave an IC50 at 48 h in data set [4] of 7.3 µM.
